Activity calls are given as the source filed them. The rule behind the calls is not given here.
Legend:
[1] = Oral bioavailability in Balb/c mouse at 50 mg/kg measured for 24 hrs by LC-MS/MS analysis; type: ADME, organism-based; settings: in vivo
[2] = system: 4T1; assay: Cytotoxicity against mouse 4T1 cells assessed as reduction in cell viability; type: functional, cell-based
[3] = Toxicity against Balb/c mouse implanted with mouse 4T1 cells assessed as effect on morphological changes in lung at 25 to 50 mg/kg, po administered daily for 15 days by Hematoxylin-Eosin staining based analysis; type: organism-based; settings: in vivo, 360 h, dose 25-50 mg/kg, time 15 day
[4] = target: T1, Protein deacetylase HDAC6 (Homo sapiens, UniProt Q9UBN7); assay: Inhibition of HDAC6 (unknown origin) using Ac-Leu-Gly-Lys(Ac)-AMC as substrate preincubated for 5 mins followed by substrate addition for 30 mins and measured following trypsin addition for 30 mins by fluorescence based analysis
T1 sequence (Q9UBN7 whole entry): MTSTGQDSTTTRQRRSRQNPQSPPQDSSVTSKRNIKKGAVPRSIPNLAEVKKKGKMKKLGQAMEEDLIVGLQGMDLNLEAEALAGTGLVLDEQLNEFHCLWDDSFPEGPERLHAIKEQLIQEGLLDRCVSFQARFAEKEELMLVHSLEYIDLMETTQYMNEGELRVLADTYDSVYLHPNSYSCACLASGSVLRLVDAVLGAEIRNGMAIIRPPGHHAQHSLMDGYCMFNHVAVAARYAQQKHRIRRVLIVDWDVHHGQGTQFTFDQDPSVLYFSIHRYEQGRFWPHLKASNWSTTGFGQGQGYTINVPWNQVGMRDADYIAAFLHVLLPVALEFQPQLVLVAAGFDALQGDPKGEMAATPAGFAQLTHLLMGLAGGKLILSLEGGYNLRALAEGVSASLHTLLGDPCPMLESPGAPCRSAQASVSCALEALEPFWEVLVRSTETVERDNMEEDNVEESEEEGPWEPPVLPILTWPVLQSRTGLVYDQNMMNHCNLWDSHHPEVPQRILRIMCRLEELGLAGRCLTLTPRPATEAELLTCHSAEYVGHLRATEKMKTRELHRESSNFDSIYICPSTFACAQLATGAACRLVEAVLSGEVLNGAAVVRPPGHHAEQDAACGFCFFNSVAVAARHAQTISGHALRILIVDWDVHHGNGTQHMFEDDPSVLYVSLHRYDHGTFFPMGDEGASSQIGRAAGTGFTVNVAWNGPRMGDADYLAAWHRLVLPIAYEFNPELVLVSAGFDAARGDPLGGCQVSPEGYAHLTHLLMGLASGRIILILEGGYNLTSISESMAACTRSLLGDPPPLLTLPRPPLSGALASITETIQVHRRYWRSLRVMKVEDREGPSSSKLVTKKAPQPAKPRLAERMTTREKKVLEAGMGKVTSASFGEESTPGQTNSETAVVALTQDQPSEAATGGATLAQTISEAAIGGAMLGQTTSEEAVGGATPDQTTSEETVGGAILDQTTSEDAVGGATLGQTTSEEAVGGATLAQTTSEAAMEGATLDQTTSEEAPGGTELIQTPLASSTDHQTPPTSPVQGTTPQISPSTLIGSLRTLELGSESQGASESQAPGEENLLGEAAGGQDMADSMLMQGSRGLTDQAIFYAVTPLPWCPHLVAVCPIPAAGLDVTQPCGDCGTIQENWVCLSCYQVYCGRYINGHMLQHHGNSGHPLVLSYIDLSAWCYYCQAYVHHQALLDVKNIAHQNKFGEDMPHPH

[5] = Half-life in Balb/c mouse at 50 mg/kg, po measured for 24 hrs by LC-MS/MS analysis; type: ADME, organism-based; settings: in vivo
[6] = Toxicity against Balb/c mouse implanted with mouse 4T1 cells assessed as effect on body weight changes at 25 to 50 mg/kg, po administered daily for 15 days; type: organism-based; settings: in vivo, 360 h, dose 25-50 mg/kg, time 15 day
[7] = system: 4T1; assay: Antitumor immunity against mouse 4T1 cells implanted in Balb/c mouse assessed as increase in CD4+ T cells in tumor tissue at 50 mg/kg, po administered daily for 15 days by flow cytometry relative to SAHA; type: functional; settings: time 15 day
[8] = system: MDA-MB-231; assay: Induction of immunogenic cell death-associated DAMP release in human MDA-MB-231 cells assessed as increase in extracellular HMGB1 release by mesuring increase in HMGB1 level in medium supernatant at 10 uM incubated for 24 hrs by ELISA; type: functional, cell-based
[9] = target: T2, Polyamine deacetylase HDAC10 (Homo sapiens, UniProt Q969S8); assay: Inhibition of HDAC10 (unknown origin) using Ac-Arg-His-Lys(Ac)-Lys(Ac)-AMC as substrate preincubated for 5 mins followed by substrate addition for 30 mins and measured following trypsin addition for 30 mins by fluorescence based analysis
T2 sequence (Q969S8 whole entry): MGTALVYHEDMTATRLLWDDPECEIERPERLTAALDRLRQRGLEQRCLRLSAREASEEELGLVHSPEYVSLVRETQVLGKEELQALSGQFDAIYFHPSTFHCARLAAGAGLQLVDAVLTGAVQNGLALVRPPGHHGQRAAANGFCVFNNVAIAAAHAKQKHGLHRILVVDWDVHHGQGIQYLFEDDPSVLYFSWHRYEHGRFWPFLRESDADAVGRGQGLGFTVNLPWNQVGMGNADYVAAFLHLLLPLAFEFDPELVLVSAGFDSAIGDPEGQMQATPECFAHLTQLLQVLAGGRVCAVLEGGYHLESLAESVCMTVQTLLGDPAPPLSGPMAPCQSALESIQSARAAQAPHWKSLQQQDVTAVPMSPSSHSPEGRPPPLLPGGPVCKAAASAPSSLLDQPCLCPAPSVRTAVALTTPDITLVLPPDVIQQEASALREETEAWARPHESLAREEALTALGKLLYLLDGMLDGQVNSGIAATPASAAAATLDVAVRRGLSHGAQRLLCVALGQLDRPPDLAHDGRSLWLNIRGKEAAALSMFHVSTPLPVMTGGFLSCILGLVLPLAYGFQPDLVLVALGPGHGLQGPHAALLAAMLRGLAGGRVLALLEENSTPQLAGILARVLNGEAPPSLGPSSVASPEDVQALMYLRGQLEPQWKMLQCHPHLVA

[10] = system: 4T1; assay: Antitumor immunity against mouse 4T1 cells implanted in Balb/c mouse assessed as increase in CD3+ T cells in tumor tissue at 50 mg/kg, po administered daily for 15 days by flow cytometry relative to SAHA; type: functional; settings: time 15 day
[11] = Chemical stability of the compound in PBS buffer at pH 7.4 measured after 10 days; type: physicochemical; settings: time 10 day, read-out: Stability
[12] = system: 4T1; assay: Antitumor immunity against mouse 4T1 cells implanted in Balb/c mouse assessed as increase in CD86+ dendritic cells in tumor tissue at 25 mg/kg, po administered daily for 15 days by immunohistochemistry; type: functional, organism-based; settings: time 15.0 day
[13] = AUC (0 to infinity) in Balb/c mouse at 1 mg/kg, iv measured for 24 hrs by LC-MS/MS analysis; type: ADME, organism-based; settings: in vivo
[14] = target: Histone deacetylase 5 (Homo sapiens, UniProt Q9UQL6); assay: Inhibition of HDAC5 (unknown origin) using Ac-Leu-Gly-Lys(tfa)-AMC as substrate preincubated for 5 mins followed by substrate addition for 30 mins and measured following trypsin addition for 30 mins by fluorescence based analysis
Sequence of Histone deacetylase 5 (Q9UQL6 whole entry): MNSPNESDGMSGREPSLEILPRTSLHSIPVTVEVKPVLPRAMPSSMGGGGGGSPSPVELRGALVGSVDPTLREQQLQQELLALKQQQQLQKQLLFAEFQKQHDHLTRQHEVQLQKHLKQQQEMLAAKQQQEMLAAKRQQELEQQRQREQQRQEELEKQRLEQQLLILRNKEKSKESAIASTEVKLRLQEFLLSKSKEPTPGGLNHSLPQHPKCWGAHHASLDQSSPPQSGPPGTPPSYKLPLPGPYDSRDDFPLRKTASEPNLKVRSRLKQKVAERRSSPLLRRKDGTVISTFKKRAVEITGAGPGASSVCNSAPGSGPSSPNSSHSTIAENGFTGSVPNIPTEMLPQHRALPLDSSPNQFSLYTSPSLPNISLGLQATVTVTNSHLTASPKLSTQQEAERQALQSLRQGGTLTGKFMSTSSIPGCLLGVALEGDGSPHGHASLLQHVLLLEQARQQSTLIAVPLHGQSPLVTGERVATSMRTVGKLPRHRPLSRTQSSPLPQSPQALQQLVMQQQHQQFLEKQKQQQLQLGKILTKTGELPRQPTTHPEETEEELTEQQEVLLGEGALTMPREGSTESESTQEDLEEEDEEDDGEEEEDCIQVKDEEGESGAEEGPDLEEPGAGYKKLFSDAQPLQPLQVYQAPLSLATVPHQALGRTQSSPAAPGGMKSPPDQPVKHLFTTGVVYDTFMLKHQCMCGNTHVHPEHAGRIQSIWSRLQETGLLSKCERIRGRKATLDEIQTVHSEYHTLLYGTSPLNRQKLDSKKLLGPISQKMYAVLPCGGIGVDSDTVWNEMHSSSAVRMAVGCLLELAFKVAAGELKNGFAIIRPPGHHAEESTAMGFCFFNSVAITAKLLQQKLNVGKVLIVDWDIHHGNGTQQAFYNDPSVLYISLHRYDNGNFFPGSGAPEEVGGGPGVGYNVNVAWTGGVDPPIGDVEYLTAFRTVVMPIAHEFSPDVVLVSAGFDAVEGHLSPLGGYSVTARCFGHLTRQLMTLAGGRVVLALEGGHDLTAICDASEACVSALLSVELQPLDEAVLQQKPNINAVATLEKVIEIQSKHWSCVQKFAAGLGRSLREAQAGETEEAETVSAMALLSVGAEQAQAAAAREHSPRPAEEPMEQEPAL

With `O=C(CCCCCCNC(=O)c1cc2cc(-c3cn[nH]c3)ccc2s1)NO` the bioavailability [1] was 0.13%, the IC50 [2] was 730 nM and the Activity [3] was “Non-Toxic”. The IC50 [4] was 0.41 nM, the half-life [5] was 732 min and the Activity [6] was “Non-Toxic”. For the same compound, the “fold change (FC)” value [7] was 1.82, the Activity [8] was “Active” and the IC50 [9] was > 10 µM. For the same compound, the “fold change (FC)” value [10] was 1.36, the remaining at 240 h [11] was 98.5% and the Activity [12] was “Active”. For the same compound, the AUC(0-inf) [13] was 89.3 ng·h/mL and the IC50 [14] was > 10 µM.

— ChEMBL document CHEMBL6127128, “Discovery of the First-in-Class Dual-Target ROCK/HDAC Inhibitor with Potent Antitumor Efficacy in Vivo That Trigger Antitumor Immunity” (J Med Chem, 2024)
